Data taken from the OligoGym collection.
After the bases stand the sugars from the 5' end (letter, count) and the backbone: PS all phosphorothioate, else s phosphorothioate and o phosphodiester by linkage. Methylation of C is not given here. e = 2'-O-(2-methoxyethyl) (MOE); k = constrained ethyl (cEt); d = 2'-deoxy (DNA); m = 2'-O-methyl

Biological target: HSD17B13
Details: ASO, HepaRG

## GCTCCATAATAATAGC (sugars kkdddddddddkekek, PS)
1 µM
  target mRNA inhibition: 15%

## GCTGAGAAGATCGGCT (sugars k3 d10 k3, PS)
1 µM
  target mRNA inhibition: 10%

## GCTGAGAGAGTATTTC (sugars k3 d10 k3, PS)
1 µM
  target mRNA inhibition: 51%

## GCTGCTAGTGCCAAAC (sugars k3 d1 m1 d8 k3, PS)
1 µM
  target mRNA inhibition: 39%

## GCTGTAAGAGTCAGTA (sugars k3 d10 k3, PS)
0.02 µM
  target mRNA inhibition: 5%
0.078 µM
  target mRNA inhibition: 0%
0.313 µM
  target mRNA inhibition: 2%
1 µM
  target mRNA inhibition: 89%
1.25 µM
  target mRNA inhibition: 57%
5 µM
  target mRNA inhibition: 82%

## GCTGTACAGTAGGCAG (sugars k3 d10 k3, PS)
1 µM
  target mRNA inhibition: 66%

## GCTTAAATGTTTAACC (sugars k3 d10 k3, PS)
1 µM
  target mRNA inhibition: 67%

## GCTTAGTACCAAGACA (sugars k3 d10 k3, PS)
1 µM
  target mRNA inhibition: 62%

## GCTTAGTGTAGAATTG (sugars k3 d10 k3, PS)
1 µM
  target mRNA inhibition: 16%

## GCTTATCGAGTTTAGC (sugars k3 d10 k3, PS)
1 µM
  target mRNA inhibition: 17%

## GCTTTTGTCCACCTTT (sugars kkdddddddddkekek, PS)
0.02 µM
  target mRNA inhibition: 28%
0.078 µM
  target mRNA inhibition: 25%
0.313 µM
  target mRNA inhibition: 45%
1 µM
  target mRNA inhibition: 75%
1.25 µM
  target mRNA inhibition: 81%
5 µM
  target mRNA inhibition: 87%

## GGAAATATAGAGGGTC (sugars k3 d10 k3, PS)
1 µM
  target mRNA inhibition: 50%

## GGAAGATTAATCATAA (sugars k3 d10 k3, PS)
1 µM
  target mRNA inhibition: 32%

## GGAATGCTCATATTAA (sugars k3 d10 k3, PS)
1 µM
  target mRNA inhibition: 19%

## GGAGTATGACAACTGG (sugars k3 d10 k3, PS)
1 µM
  target mRNA inhibition: 28%

## GGATACCTGAAAAGCC (sugars k3 d10 k3, PS)
0.02 µM
  target mRNA inhibition: 2%
0.078 µM
  target mRNA inhibition: 0%
0.313 µM
  target mRNA inhibition: 38%
1 µM
  target mRNA inhibition: 68%
1.25 µM
  target mRNA inhibition: 69%
5 µM
  target mRNA inhibition: 77%

## GGATAGAGCACATGGC (sugars k3 d10 k3, PS)
1 µM
  target mRNA inhibition: 33%

## GGATGATGTTCATGGC (sugars k3 d10 k3, PS)
0.02 µM
  target mRNA inhibition: 4%
0.078 µM
  target mRNA inhibition: 40%
0.313 µM
  target mRNA inhibition: 75%
1 µM
  target mRNA inhibition: 82%
1.25 µM
  target mRNA inhibition: 80%
5 µM
  target mRNA inhibition: 76%

## GGCCAAGGGAACACTG (sugars k3 d10 k3, PS)
1 µM
  target mRNA inhibition: 36%

## GGCTAAACCCTGGAGC (sugars k3 d10 k3, PS)
1 µM
  target mRNA inhibition: 36%

## GGCTACTTTCAAACCT (sugars k3 d10 k3, PS)
1 µM
  target mRNA inhibition: 54%

## GGCTGGATATACTGTC (sugars k3 d10 k3, PS)
1 µM
  target mRNA inhibition: 18%

## GGGAAAAAGTGTGTTC (sugars k3 d10 k3, PS)
1 µM
  target mRNA inhibition: 20%

## GGGAAAGAAGTCTCCT (sugars k3 d10 k3, PS)
1 µM
  target mRNA inhibition: 13%

## GGGAGGTAGCTTTTGT (sugars k3 d9 k3 e1, PS)
1 µM
  target mRNA inhibition: 40%

## GGGAGTCGGATTATTT (sugars k3 d10 k3, PS)
1 µM
  target mRNA inhibition: 33%

## GGGTCCATTGTTTCTT (sugars k3 d10 k3, PS)
1 µM
  target mRNA inhibition: 21%

## GGTAACGGTGATCAAA (sugars k3 d10 k3, PS)
1 µM
  target mRNA inhibition: 51%

## GGTAAGCCCCATGCCA (sugars k3 d10 k3, PS)
1 µM
  target mRNA inhibition: 38%

## GGTAAGTATTCCATCT (sugars k3 d10 k3, PS)
1 µM
  target mRNA inhibition: 12%

## GGTAGCTTTTGTCCAC (sugars k3 d10 k3, PS)
1 µM
  target mRNA inhibition: 66%

## GGTCCACTTTTGGTGG (sugars k3 d10 k3, PS)
1 µM
  target mRNA inhibition: 13%

## GGTGGTAACGGTGATC (sugars k3 d1 m1 d8 k3, PS)
1 µM
  target mRNA inhibition: 35%

## GGTGGTAACGGTGATC (sugars k3 d9 k3 e1, PS)
1 µM
  target mRNA inhibition: 47%

## GGTTGAGATAAAGCTG (sugars k3 d1 m1 d8 k3, PS)
1 µM
  target mRNA inhibition: 57%

## GGTTGAGATAAAGCTG (sugars k3 d9 k3 e1, PS)
1 µM
  target mRNA inhibition: 67%

## GGTTTTGATACCAGTT (sugars k3 d10 k3, PS)
1 µM
  target mRNA inhibition: 58%

## GTAAACGACTCTGTAA (sugars k3 d10 k3, PS)
1 µM
  target mRNA inhibition: 8%

## GTAAATTCTTGCTATC (sugars k3 d10 k3, PS)
1 µM
  target mRNA inhibition: 40%

## GTAAATTGAATAGCCA (sugars k3 d10 k3, PS)
1 µM
  target mRNA inhibition: 55%

## GTAACGGTGATCAAAT (sugars kkdddddddddkekek, PS)
1 µM
  target mRNA inhibition: 34%

## GTAACTGTATTAAGAC (sugars k3 d10 k3, PS)
1 µM
  target mRNA inhibition: 54%

## GTAAGCACAGAAGTTT (sugars k3 d10 k3, PS)
1 µM
  target mRNA inhibition: 55%

## GTAAGGAGTAGTGGAG (sugars k3 d10 k3, PS)
1 µM
  target mRNA inhibition: 37%

## GTAAGTATTCCATCTA (sugars k3 d10 k3, PS)
1 µM
  target mRNA inhibition: 45%

## GTAATAGCCAGTACAG (sugars k3 d10 k3, PS)
0.02 µM
  target mRNA inhibition: 0%
0.078 µM
  target mRNA inhibition: 9%
0.313 µM
  target mRNA inhibition: 45%
1 µM
  target mRNA inhibition: 77%
1.25 µM
  target mRNA inhibition: 69%
5 µM
  target mRNA inhibition: 84%

## GTAATAGGCAGTAAAG (sugars k3 d10 k3, PS)
1 µM
  target mRNA inhibition: 77%

## GTAATATTCATAGTTC (sugars k3 d10 k3, PS)
1 µM
  target mRNA inhibition: 49%

## GTAATCACAAGTAAGG (sugars k3 d10 k3, PS)
0.02 µM
  target mRNA inhibition: 0%
0.078 µM
  target mRNA inhibition: 12%
0.313 µM
  target mRNA inhibition: 32%
1 µM
  target mRNA inhibition: 70%
1.25 µM
  target mRNA inhibition: 70%
5 µM
  target mRNA inhibition: 93%

## GTAATCAGTTTTCCTC (sugars k3 d10 k3, PS)
0.02 µM
  target mRNA inhibition: 0%
0.078 µM
  target mRNA inhibition: 0%
0.313 µM
  target mRNA inhibition: 11%
1 µM
  target mRNA inhibition: 79%
1.25 µM
  target mRNA inhibition: 36%
5 µM
  target mRNA inhibition: 73%

## GTAATCTTGAGGCAGG (sugars k3 d10 k3, PS)
1 µM
  target mRNA inhibition: 51%

## GTACAGTAGGCAGTTT (sugars k3 d10 k3, PS)
1 µM
  target mRNA inhibition: 50%

## GTACATGCCAAGCTTT (sugars k3 d10 k3, PS)
1 µM
  target mRNA inhibition: 61%

## GTACTATAGTATTTAC (sugars k3 d10 k3, PS)
1 µM
  target mRNA inhibition: 27%

## GTAGATGATGGTGATC (sugars k3 d10 k3, PS)
1 µM
  target mRNA inhibition: 36%

## GTAGCTTTTGTCCACC (sugars k3 d1 m1 d8 k3, PS)
1 µM
  target mRNA inhibition: 64%

## GTAGCTTTTGTCCACC (sugars k3 d10 k3, PS)
1 µM
  target mRNA inhibition: 63%

## GTAGGAGTAGATGATG (sugars k3 d10 k3, PS)
1 µM
  target mRNA inhibition: 7%

## GTAGTGGGAGTCGGAT (sugars k3 d10 k3, PS)
1 µM
  target mRNA inhibition: 48%

## GTATAAATGGCAATTC (sugars k3 d10 k3, PS)
1 µM
  target mRNA inhibition: 56%

## GTATAGTTATCTTCTC (sugars kkkdddddkdddkkke, PS)
1 µM
  target mRNA inhibition: 68%

## GTATGGTAAGCCCCAT (sugars k3 d10 k3, PS)
1 µM
  target mRNA inhibition: 36%

## GTATGTTTATGTAAGC (sugars k3 d1 m1 d8 k3, PS)
0.02 µM
  target mRNA inhibition: 0%
0.078 µM
  target mRNA inhibition: 0%
0.313 µM
  target mRNA inhibition: 10%
1 µM
  target mRNA inhibition: 66%
1.25 µM
  target mRNA inhibition: 72%
5 µM
  target mRNA inhibition: 90%

## GTATGTTTATGTAAGC (sugars kkdddddddddkekek, PS)
0.02 µM
  target mRNA inhibition: 11%
0.078 µM
  target mRNA inhibition: 27%
0.313 µM
  target mRNA inhibition: 53%
1 µM
  target mRNA inhibition: 72%
1.25 µM
  target mRNA inhibition: 63%
5 µM
  target mRNA inhibition: 68%
